Marks after values point to notes of the source that are not given here.
Columns and labels:
[1] = Dynamic light scattering: LNP particle size and PDI; format: physicochemical; conditions: LNP compositions for Formulation F2 Study
Method in brief: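 The LNPs were made by microfluidic mixing of the lipids in ethanol with mRNA in pH 4.0 citrate, then dialyzed into PBS pH 7.4. They were diluted in PBS pH 7.4, and particle size and PDI were measured by dynamic light scattering.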

[2] = Plate-based fluorescence (RiboGreen) assay: nucleic acid cargo content and encapsulation efficiency of LNPs; format: physicochemical; conditions: LNP compositions for Formulation F2 Study
Method in brief: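 LNPs made by microfluidic mixing of ethanolic lipids with mRNA in pH 4.0 citrate, dialyzed into PBS pH 7.4. Cargo quantified by RiboGreen fluorescence against a standard curve: Triton-lysed samples give total, TE-only samples give free cargo; encapsulation efficiency from their ratio.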

[3] = system: mouse organs; experiment: In vivo activity screening in mice: organ mean total flux (p/s) of luciferase activity after injection of F2 LNP pools (Table 6, FIG. 7A-7C); conditions: luciferase mRNA
Method in brief: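 C57BL/6J mice given one tail-vein injection of pooled Formulation F2 LNPs carrying firefly luciferase mRNA (0.25-3 mg/kg) in PBS. At 4-6 h, s.c. D-luciferin given; organs imaged ex vivo by IVIS within 10-15 min, after saline cardiac perfusion. Mean total flux (p/s) per organ ROI.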

Structure (SMILES): CCCCC/C=C\C/C=C\CCCCCCCCC(CCCCCCCC/C=C\C/C=C\CCCCC)OC(=O)CCCN(C)C [MC3, reference compound]
- PDI [1]: 0.098
- Particle Size (nm) [1]: 87.8 nm
- EE % [2]: 98%
- Organ Mean Total Flux Femur ([3]; Mouse 1, dose 0.3 mg/kg): 8.5 p/s (×10^6)
- Organ Mean Total Flux Heart ([3]; Mouse 1, dose 0.3 mg/kg): 2.8 p/s (×10^6)
- Organ Mean Total Flux Kidney ([3]; Mouse 1, dose 0.3 mg/kg): 1.9 p/s (×10^6)
- Organ Mean Total Flux Liver ([3]; Mouse 1, dose 0.3 mg/kg): 6896 p/s (×10^6)
- Organ Mean Total Flux Lung ([3]; Mouse 1, dose 0.3 mg/kg): 17.2 p/s (×10^6)
- Organ Mean Total Flux Muscle ([3]; Mouse 1, dose 0.3 mg/kg): 7.5 p/s (×10^6)
- Organ Mean Total Flux Pancreas ([3]; Mouse 1, dose 0.3 mg/kg): 2.6 p/s (×10^6)
- Organ Mean Total Flux Spleen ([3]; Mouse 1, dose 0.3 mg/kg): 22.3 p/s (×10^6)
- Organ Mean Total Flux Femur ([3]; Mouse 2, dose 1.0 mg/kg): 9.9 p/s (×10^6)
- Organ Mean Total Flux Heart ([3]; Mouse 2, dose 1.0 mg/kg): 17.0 p/s (×10^6)
- Organ Mean Total Flux Kidney ([3]; Mouse 2, dose 1.0 mg/kg): 16.6 p/s (×10^6)
- Organ Mean Total Flux Liver ([3]; Mouse 2, dose 1.0 mg/kg): 15500 p/s (×10^6)
- Organ Mean Total Flux Lung ([3]; Mouse 2, dose 1.0 mg/kg): 60.5 p/s (×10^6)
- Organ Mean Total Flux Muscle ([3]; Mouse 2, dose 1.0 mg/kg): 16.6 p/s (×10^6)
- Organ Mean Total Flux Pancreas ([3]; Mouse 2, dose 1.0 mg/kg): 7.4 p/s (×10^6)
- Organ Mean Total Flux Spleen ([3]; Mouse 2, dose 1.0 mg/kg): 23.0 p/s (×10^6)
- Organ Mean Total Flux Femur ([3]; Mouse 3, dose 1.0 mg/kg): 6.9 p/s (×10^6)
- Organ Mean Total Flux Heart ([3]; Mouse 3, dose 1.0 mg/kg): 8.5 p/s (×10^6)
- Organ Mean Total Flux Kidney ([3]; Mouse 3, dose 1.0 mg/kg): 7.3 p/s (×10^6)
- Organ Mean Total Flux Liver ([3]; Mouse 3, dose 1.0 mg/kg): 9707 p/s (×10^6)
- Organ Mean Total Flux Lung ([3]; Mouse 3, dose 1.0 mg/kg): 106.4 p/s (×10^6)
- Organ Mean Total Flux Muscle ([3]; Mouse 3, dose 1.0 mg/kg): 23.6 p/s (×10^6)
- Organ Mean Total Flux Pancreas ([3]; Mouse 3, dose 1.0 mg/kg): 2.7 p/s (×10^6)
- Organ Mean Total Flux Spleen ([3]; Mouse 3, dose 1.0 mg/kg): 22.8 p/s (×10^6)
- Organ Mean Total Flux Femur ([3]; Mouse 5, dose 0.5 mg/kg): 4.8 p/s (×10^6)
- Organ Mean Total Flux Heart ([3]; Mouse 5, dose 0.5 mg/kg): 5.7 p/s (×10^6)
- Organ Mean Total Flux Kidney ([3]; Mouse 5, dose 0.5 mg/kg): 18.6 p/s (×10^6)
- Organ Mean Total Flux Liver ([3]; Mouse 5, dose 0.5 mg/kg): 5667 p/s (×10^6)
- Organ Mean Total Flux Lung ([3]; Mouse 5, dose 0.5 mg/kg): 34.5 p/s (×10^6)
- Organ Mean Total Flux Muscle ([3]; Mouse 5, dose 0.5 mg/kg): 10.0 p/s (×10^6)
- Organ Mean Total Flux Pancreas ([3]; Mouse 5, dose 0.5 mg/kg): 1.9 p/s (×10^6)
- Organ Mean Total Flux Spleen ([3]; Mouse 5, dose 0.5 mg/kg): 17.6 p/s (×10^6)
- Organ Mean Total Flux Femur ([3]; Mouse 6, dose 0.5 mg/kg): 3.3 p/s (×10^6)
- Organ Mean Total Flux Heart ([3]; Mouse 6, dose 0.5 mg/kg): 5.2 p/s (×10^6)
- Organ Mean Total Flux Kidney ([3]; Mouse 6, dose 0.5 mg/kg): 3.9 p/s (×10^6)
- Organ Mean Total Flux Liver ([3]; Mouse 6, dose 0.5 mg/kg): 4796 p/s (×10^6)
- Organ Mean Total Flux Lung ([3]; Mouse 6, dose 0.5 mg/kg): 28.6 p/s (×10^6)
- Organ Mean Total Flux Muscle ([3]; Mouse 6, dose 0.5 mg/kg): 8.2 p/s (×10^6)
- Organ Mean Total Flux Pancreas ([3]; Mouse 6, dose 0.5 mg/kg): 3.6 p/s (×10^6)
- Organ Mean Total Flux Spleen ([3]; Mouse 6, dose 0.5 mg/kg): 11.7 p/s (×10^6)
- Organ Mean Total Flux Femur ([3]; Mouse 9, dose 0.5 mg/kg): 3.8 p/s (×10^6)
- Organ Mean Total Flux Heart ([3]; Mouse 9, dose 0.5 mg/kg): 4.1 p/s (×10^6)
- Organ Mean Total Flux Kidney ([3]; Mouse 9, dose 0.5 mg/kg): 2.1 p/s (×10^6)
- Organ Mean Total Flux Liver ([3]; Mouse 9, dose 0.5 mg/kg): 3903 p/s (×10^6)
- Organ Mean Total Flux Lung ([3]; Mouse 9, dose 0.5 mg/kg): 12.7 p/s (×10^6)
- Organ Mean Total Flux Muscle ([3]; Mouse 9, dose 0.5 mg/kg): 5.6 p/s (×10^6)
- Organ Mean Total Flux Pancreas ([3]; Mouse 9, dose 0.5 mg/kg): 1.1 p/s (×10^6)
- Organ Mean Total Flux Spleen ([3]; Mouse 9, dose 0.5 mg/kg): 5.4 p/s (×10^6)
- Organ Mean Total Flux Femur ([3]; Mouse 11, dose 0.5 mg/kg): 2.2 p/s (×10^6)
- Organ Mean Total Flux Heart ([3]; Mouse 11, dose 0.5 mg/kg): 2.9 p/s (×10^6)
- Organ Mean Total Flux Kidney ([3]; Mouse 11, dose 0.5 mg/kg): 1.0 p/s (×10^6)
- Organ Mean Total Flux Liver ([3]; Mouse 11, dose 0.5 mg/kg): 2603 p/s (×10^6)
- Organ Mean Total Flux Lung ([3]; Mouse 11, dose 0.5 mg/kg): 12.1 p/s (×10^6)
- Organ Mean Total Flux Muscle ([3]; Mouse 11, dose 0.5 mg/kg): 2.7 p/s (×10^6)
- Organ Mean Total Flux Pancreas ([3]; Mouse 11, dose 0.5 mg/kg): 0.7 p/s (×10^6)
- Organ Mean Total Flux Spleen ([3]; Mouse 11, dose 0.5 mg/kg): 4.0 p/s (×10^6)
- Organ Mean Total Flux Femur ([3]; Mouse 12, dose 0.5 mg/kg): 5.8 p/s (×10^6)
- Organ Mean Total Flux Heart ([3]; Mouse 12, dose 0.5 mg/kg): 2.4 p/s (×10^6)
- Organ Mean Total Flux Kidney ([3]; Mouse 12, dose 0.5 mg/kg): 53.9 p/s (×10^6)
- Organ Mean Total Flux Liver ([3]; Mouse 12, dose 0.5 mg/kg): 2307 p/s (×10^6)
- Organ Mean Total Flux Lung ([3]; Mouse 12, dose 0.5 mg/kg): 13.7 p/s (×10^6)
- Organ Mean Total Flux Muscle ([3]; Mouse 12, dose 0.5 mg/kg): 4.1 p/s (×10^6)
- Organ Mean Total Flux Pancreas ([3]; Mouse 12, dose 0.5 mg/kg): 9.6 p/s (×10^6)
- Organ Mean Total Flux Spleen ([3]; Mouse 12, dose 0.5 mg/kg): 8.6 p/s (×10^6)
- Organ Mean Total Flux Femur ([3]; Mouse 13, dose 0.5 mg/kg): 2.7 p/s (×10^6)
- Organ Mean Total Flux Heart ([3]; Mouse 13, dose 0.5 mg/kg): 5.0 p/s (×10^6)
- Organ Mean Total Flux Kidney ([3]; Mouse 13, dose 0.5 mg/kg): 0.9 p/s (×10^6)
- Organ Mean Total Flux Liver ([3]; Mouse 13, dose 0.5 mg/kg): 1767 p/s (×10^6)
- Organ Mean Total Flux Lung ([3]; Mouse 13, dose 0.5 mg/kg): 8.3 p/s (×10^6)
- Organ Mean Total Flux Muscle ([3]; Mouse 13, dose 0.5 mg/kg): 2.8 p/s (×10^6)
- Organ Mean Total Flux Pancreas ([3]; Mouse 13, dose 0.5 mg/kg): 0.8 p/s (×10^6)
- Organ Mean Total Flux Spleen ([3]; Mouse 13, dose 0.5 mg/kg): 5.7 p/s (×10^6)
- Organ Mean Total Flux Femur ([3]; Mouse 14, dose 0.5 mg/kg): 2.2 p/s (×10^6)
- Organ Mean Total Flux Heart ([3]; Mouse 14, dose 0.5 mg/kg): 4.4 p/s (×10^6)
- Organ Mean Total Flux Kidney ([3]; Mouse 14, dose 0.5 mg/kg): 26.8 p/s (×10^6)
- Organ Mean Total Flux Liver ([3]; Mouse 14, dose 0.5 mg/kg): 2037 p/s (×10^6)
- Organ Mean Total Flux Lung ([3]; Mouse 14, dose 0.5 mg/kg): 19.3 p/s (×10^6)
- Organ Mean Total Flux Muscle ([3]; Mouse 14, dose 0.5 mg/kg): 5.7 p/s (×10^6)
- Organ Mean Total Flux Pancreas ([3]; Mouse 14, dose 0.5 mg/kg): 1.2 p/s (×10^6)
- Organ Mean Total Flux Spleen ([3]; Mouse 14, dose 0.5 mg/kg): 8.5 p/s (×10^6)

Source: US20260234115A1, “LIPID COMPOUNDS, COMPOSITIONS, AND USES THEREOF” (Liberate Bio, Inc., priority 2023, published 2026)
